Source: the NIST ThermoML archive (doi:10.1021/je700287u)

Test: xn = mol fraction of the nth substance listed
Conditions: Liquid

CN(CCO)CCO [N-methyldiethanolamine] + O
Conditions	mass density [kg/m3]
352.84 K, 15989 kPa, x1 = 0.1302	1010.4
352.84 K, 16976 kPa, x1 = 0.1302	1010.8
352.84 K, 17977 kPa, x1 = 0.1302	1011.2
352.84 K, 18979 kPa, x1 = 0.1302	1011.6
352.84 K, 19995 kPa, x1 = 0.1302	1012
352.85 K, 1004 kPa, x1 = 0.0369	983.9
352.85 K, 2037 kPa, x1 = 0.0369	984.4
352.85 K, 2962 kPa, x1 = 0.0369	984.8
352.85 K, 4014 kPa, x1 = 0.0369	985.2
352.85 K, 4994 kPa, x1 = 0.0369	985.6
352.85 K, 6034 kPa, x1 = 0.0369	986.1
352.85 K, 6999 kPa, x1 = 0.0369	986.5
352.85 K, 8019 kPa, x1 = 0.0369	987
352.85 K, 8987 kPa, x1 = 0.0369	987.3
352.85 K, 9992 kPa, x1 = 0.0369	987.8
352.85 K, 10987 kPa, x1 = 0.0369	988.2
352.85 K, 11994 kPa, x1 = 0.0369	988.6
352.85 K, 12978 kPa, x1 = 0.0369	989.1
352.85 K, 13987 kPa, x1 = 0.0369	989.4
352.85 K, 14998 kPa, x1 = 0.0369	989.9
352.85 K, 15956 kPa, x1 = 0.0369	990.2
352.85 K, 16987 kPa, x1 = 0.0369	990.7
352.85 K, 17991 kPa, x1 = 0.0369	991.1
352.85 K, 18986 kPa, x1 = 0.0369	991.5
352.85 K, 19988 kPa, x1 = 0.0369	991.9
352.88 K, 1037 kPa, x1 = 0.0893	998.6
352.88 K, 2010 kPa, x1 = 0.0893	999
352.88 K, 3005 kPa, x1 = 0.0893	999.5
352.88 K, 4010 kPa, x1 = 0.0893	999.9
352.88 K, 4999 kPa, x1 = 0.0893	1000.3
352.88 K, 5993 kPa, x1 = 0.0893	1000.7
352.88 K, 7000 kPa, x1 = 0.0893	1001.1
352.88 K, 7998 kPa, x1 = 0.0893	1001.6
352.88 K, 8982 kPa, x1 = 0.0893	1002
352.88 K, 9977 kPa, x1 = 0.0893	1002.4
352.88 K, 10995 kPa, x1 = 0.0893	1002.8
352.88 K, 11987 kPa, x1 = 0.0893	1003.3
352.88 K, 12999 kPa, x1 = 0.0893	1003.7
352.88 K, 13990 kPa, x1 = 0.0893	1004.1
352.88 K, 14969 kPa, x1 = 0.0893	1004.5
352.88 K, 15990 kPa, x1 = 0.0893	1004.9
352.88 K, 16991 kPa, x1 = 0.0893	1005.3
352.88 K, 18009 kPa, x1 = 0.0893	1005.8
352.88 K, 18994 kPa, x1 = 0.0893	1006.2
352.88 K, 20015 kPa, x1 = 0.0893	1006.6
362.71 K, 1012 kPa, x1 = 0.0369	977.3
362.71 K, 2054 kPa, x1 = 0.0369	977.8
362.71 K, 3004 kPa, x1 = 0.0369	978.2
362.71 K, 3981 kPa, x1 = 0.0369	978.6
362.71 K, 4997 kPa, x1 = 0.0369	979.1
362.71 K, 6006 kPa, x1 = 0.0369	979.5
362.71 K, 7005 kPa, x1 = 0.0369	979.9
362.71 K, 7962 kPa, x1 = 0.0369	980.3
362.71 K, 8999 kPa, x1 = 0.0369	980.8
362.71 K, 9999 kPa, x1 = 0.0369	981.2
362.71 K, 10997 kPa, x1 = 0.0369	981.6
362.71 K, 11979 kPa, x1 = 0.0369	982
362.71 K, 12988 kPa, x1 = 0.0369	982.5
362.71 K, 13990 kPa, x1 = 0.0369	982.9
362.71 K, 14982 kPa, x1 = 0.0369	983.4
362.71 K, 15982 kPa, x1 = 0.0369	983.8
362.71 K, 16992 kPa, x1 = 0.0369	984.2
362.71 K, 17958 kPa, x1 = 0.0369	984.6
362.71 K, 18984 kPa, x1 = 0.0369	985.1
362.71 K, 19984 kPa, x1 = 0.0369	985.5
362.72 K, 1043 kPa, x1 = 0.1302	995.9
362.72 K, 2117 kPa, x1 = 0.1302	996.4
362.72 K, 3008 kPa, x1 = 0.1302	996.8
362.72 K, 3995 kPa, x1 = 0.1302	997.3
362.72 K, 5002 kPa, x1 = 0.1302	997.8
362.72 K, 5994 kPa, x1 = 0.1302	998.2
362.72 K, 6994 kPa, x1 = 0.1302	998.6
362.72 K, 8003 kPa, x1 = 0.1302	999.1
362.72 K, 8988 kPa, x1 = 0.1302	999.6
362.72 K, 9991 kPa, x1 = 0.1302	1000
362.72 K, 11003 kPa, x1 = 0.1302	1000.4
362.72 K, 12036 kPa, x1 = 0.1302	1000.9
362.72 K, 13005 kPa, x1 = 0.1302	1001.3
362.72 K, 13983 kPa, x1 = 0.1302	1001.7
362.72 K, 14984 kPa, x1 = 0.1302	1002.2
362.72 K, 15981 kPa, x1 = 0.1302	1002.6
362.72 K, 16993 kPa, x1 = 0.1302	1003
362.72 K, 17988 kPa, x1 = 0.1302	1003.5
362.72 K, 18994 kPa, x1 = 0.1302	1003.9
362.72 K, 19995 kPa, x1 = 0.1302	1004.4
362.75 K, 993 kPa, x1 = 0.0893	990.9
362.75 K, 2025 kPa, x1 = 0.0893	991.3
362.75 K, 3013 kPa, x1 = 0.0893	991.8
362.75 K, 3995 kPa, x1 = 0.0893	992.2
362.75 K, 5018 kPa, x1 = 0.0893	992.7
362.75 K, 6003 kPa, x1 = 0.0893	993.1
362.75 K, 6988 kPa, x1 = 0.0893	993.6
362.75 K, 8002 kPa, x1 = 0.0893	994
362.75 K, 8996 kPa, x1 = 0.0893	994.4
362.75 K, 10040 kPa, x1 = 0.0893	994.9
362.75 K, 11000 kPa, x1 = 0.0893	995.3
362.75 K, 11988 kPa, x1 = 0.0893	995.7
362.75 K, 12992 kPa, x1 = 0.0893	996.1
362.75 K, 13990 kPa, x1 = 0.0893	996.6
362.75 K, 14990 kPa, x1 = 0.0893	997
362.75 K, 15993 kPa, x1 = 0.0893	997.5
362.75 K, 17004 kPa, x1 = 0.0893	997.9
362.75 K, 17984 kPa, x1 = 0.0893	998.3
362.75 K, 19022 kPa, x1 = 0.0893	998.7
362.75 K, 19984 kPa, x1 = 0.0893	999.2
